PubChem BioAssay AID192 (DTP/NCI, 2004)
Where “and” joins values, the source holds several entries; their conditions need not be identical. Equal entries are not always repeated. Inconclusive results and toxic doses are left out.

Test system: BDF1 mice, B16 melanoma ip, median survival T/C
Assay: NCI In Vivo Anticancer Drug Screen. Data for tumor model B16 Melanoma (intraperitoneal) in B6D2F1 (BDF1) mice
Settings: endpoint: median survival time, higher = longer survival
Outline: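 Vehicle-treated animals serve as the reference (C); treated animals (T) are scored for survival or tumor size after tumor transplantation.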

[1] = dose: 3.12 mg/kg/injection, schedule: Q01DX009 (ip), vehicle: Klucel (hydroxypropylcellulose) (HPC)
[2] = dose: 6.25 mg/kg/injection, schedule: Q01DX009 (ip), vehicle: Klucel (hydroxypropylcellulose) (HPC)
[3] = dose: 6.25 mg/kg/injection, schedule: Q01DX009 (ip), vehicle: saline with Tween-80
[4] = dose: 12.5 mg/kg/injection, schedule: Q01DX009 (ip), vehicle: Klucel (hydroxypropylcellulose) (HPC)
[5] = dose: 12.5 mg/kg/injection, schedule: Q01DX009 (ip), vehicle: saline with Tween-80
[6] = dose: 25.0 mg/kg/injection, schedule: Q01DX009 (ip), vehicle: Klucel (hydroxypropylcellulose) (HPC)
[7] = dose: 100.0 mg/kg/injection, schedule: Q01DX009 (ip), vehicle: saline with Tween-80
[8] = dose: 200.0 mg/kg/injection, schedule: Q01DX009 (ip), vehicle: saline with Tween-80
[9] = dose: 50.0 mg/kg/injection, schedule: Q01DX009 (ip), vehicle: Klucel (hydroxypropylcellulose) (HPC)
[10] = dose: 100.0 mg/kg/injection, schedule: Q01DX009 (ip), vehicle: Klucel (hydroxypropylcellulose) (HPC)
[11] = dose: 25.0 mg/kg/injection, schedule: Q01DX009 (ip), vehicle: saline with Tween-80
[12] = dose: 50.0 mg/kg/injection, schedule: Q01DX009 (ip), vehicle: saline with Tween-80

In the case of O=C(NCCCCCCCCCCNC(=O)N1CC1)N1CC1, the T/C (dose: 0.75 mg/kg/injection, schedule: Q01DX009 (ip), vehicle: saline) is reported as 115 % of control and the T/C (dose: 3.0 mg/kg/injection, schedule: Q01DX009 (ip), vehicle: saline) is reported as 154 % of control.

In the case of O=C1C2(Cl)C3(Cl)C4(Cl)C(Cl)(Cl)C5(Cl)[C@]3(Cl)C1(Cl)[C@]5(Cl)C24Cl (stereo not given in full), the T/C [1] is reported as 97 % of control, the T/C [2] is reported as 105 % of control and the T/C [3] is reported as 102 % of control. For the same compound, the T/C [4] was 98 % of control, the T/C [5] was 106 % of control and the T/C [6] was 110 % of control.

With CNC(=O)Oc1ccc2ccccc2c1 the T/C [7] was 100 % of control, the T/C [8] was 104 % of control and the T/C (dose: 400.0 mg/kg/injection, schedule: Q01DX009 (ip), vehicle: saline with Tween-80) was 93 % of control.

In the case of NC(N)=Nc1cc2ccccc2c2ccccc12, the T/C (dose: 5.0 mg/kg/injection, schedule: Q01DX009 (ip), vehicle: saline) is reported as 93 % of control, the T/C (dose: 10.0 mg/kg/injection, schedule: Q01DX009 (ip), vehicle: saline) is reported as 111 % of control and the T/C (dose: 20.0 mg/kg/injection, schedule: Q01DX009 (ip), vehicle: saline) is reported as 120 % of control.

In the case of CCCCCCCCC(=O)OCCNC(=O)C(C)OC(=O)CCCCCCCC (stereo not given), the T/C [6] is reported as 102 % of control, the T/C [9] is reported as 103 % of control and the T/C [10] is reported as 92 % of control.

OC(C1CO1)(C(F)(F)F)C(F)(F)F (stereo not given) was tested, and the T/C (dose: 50.0 mg/kg/injection, schedule: Q01DX009 (ip), vehicle: saline) was 92 % of control, the T/C (dose: 100.0 mg/kg/injection, schedule: Q01DX009 (ip), vehicle: saline) was 90 % of control and the T/C (dose: 200.0 mg/kg/injection, schedule: Q01DX009 (ip), vehicle: saline) was 92 % of control.

In the case of Cc1cccc(C)c1C1=NCCN1, the T/C [5] is reported as 95 % of control, the T/C [11] is reported as 95 % of control and the T/C [12] is reported as 93 % of control.

For Cc1ccccc1CN1CCN(CCOC(c2ccccc2)c2ccccc2Cl)CC1 (stereo not given), the T/C [1] was 93 % of control and 94 % of control, the T/C [2] was 93 % of control and the T/C [4] was 91 % of control and 100 % of control. For the same compound, the T/C [6] was 86 % of control and 89 % of control and the T/C [9] was 86 % of control.

With CCCCOB=O the T/C [12] was 95 % of control, the T/C [7] was 99 % of control and the T/C [8] was 89 % of control.

For O=C(CCl)Nc1cc(C(F)(F)F)ccc1Cl, the T/C [3] was 103 % of control, the T/C [5] was 95 % of control and the T/C [11] was 93 % of control.

CC[CH2][Pb]([Cl])([CH2]CC)[CH2]CC was tested, and the T/C (dose: 0.09 mg/kg/injection, schedule: Q01DX009 (ip), vehicle: DMSO) was 100 % of control, the T/C (dose: 0.18 mg/kg/injection, schedule: Q01DX009 (ip), vehicle: DMSO) was 92 % of control and the T/C (dose: 0.37 mg/kg/injection, schedule: Q01DX009 (ip), vehicle: DMSO) was 95 % of control. The T/C (dose: 0.75 mg/kg/injection, schedule: Q01DX009 (ip), vehicle: DMSO) was 95 % of control and the T/C (dose: 1.5 mg/kg/injection, schedule: Q01DX009 (ip), vehicle: DMSO) was 92 % of control.

For N#Cc1nc2ccccc2nc1C#N, the T/C [4] was 110 % of control, the T/C (dose: 12.5 mg/kg/injection, schedule: Q04DX003 (ip), vehicle: Klucel (hydroxypropylcellulose) (HPC)) was 97 % of control and the T/C (dose: 25.0 mg/kg/injection, schedule: Q04DX003 (ip), vehicle: Klucel (hydroxypropylcellulose) (HPC)) was 102 % of control. The T/C (dose: 50.0 mg/kg/injection, schedule: Q04DX003 (ip), vehicle: Klucel (hydroxypropylcellulose) (HPC)) was 95 % of control.

O=C(O)C1C2CC(O)C(C2)C1C(=O)O (stereo not given) was tested, and the T/C (dose: 100.0 mg/kg/injection, schedule: Q04DX003 (ip), vehicle: saline) was 100 % of control and 94 % of control, the T/C (dose: 200.0 mg/kg/injection, schedule: Q04DX003 (ip), vehicle: saline) was 100 % of control and 91 % of control and the T/C (dose: 400.0 mg/kg/injection, schedule: Q04DX003 (ip), vehicle: saline) was 94 % of control.

For CC(=O)OCC1OC(OC2=C(CC=C(C)C)C(=O)c3ccccc3C2=O)C(OC(C)=O)C(OC(C)=O)C1OC(C)=O (stereo not given), the T/C [2] was 95 % of control and 98 % of control, the T/C [4] was 87 % of control and the T/C [6] was 87 % of control. For the same compound, the T/C [9] was 88 % of control and 91 % of control and the T/C [10] was 92 % of control.

In the case of CCCOP(=S)(N1CC1)N1CC1, the T/C [11] is reported as 91 % of control, the T/C [12] is reported as 99 % of control and the T/C [7] is reported as 91 % of control. For the same compound, the T/C [8] was 103 % of control.
